Here are results for 23 compounds from ChEMBL document CHEMBL1275338, “Design, synthesis and bioevaluation of dihydropyrazolo[3,4-b]pyridine and benzo[4,5]imidazo[1,2-a]pyrimidine compounds as dual KSP and Aurora-A kinase inhibitors for anti-cancer agents” (Bioorg Med Chem, 2010).

For assay [1], the target named is T1, Kinesin-like protein KIF11 (Homo sapiens, UniProt P52732).
T1 sequence (P52732 whole entry): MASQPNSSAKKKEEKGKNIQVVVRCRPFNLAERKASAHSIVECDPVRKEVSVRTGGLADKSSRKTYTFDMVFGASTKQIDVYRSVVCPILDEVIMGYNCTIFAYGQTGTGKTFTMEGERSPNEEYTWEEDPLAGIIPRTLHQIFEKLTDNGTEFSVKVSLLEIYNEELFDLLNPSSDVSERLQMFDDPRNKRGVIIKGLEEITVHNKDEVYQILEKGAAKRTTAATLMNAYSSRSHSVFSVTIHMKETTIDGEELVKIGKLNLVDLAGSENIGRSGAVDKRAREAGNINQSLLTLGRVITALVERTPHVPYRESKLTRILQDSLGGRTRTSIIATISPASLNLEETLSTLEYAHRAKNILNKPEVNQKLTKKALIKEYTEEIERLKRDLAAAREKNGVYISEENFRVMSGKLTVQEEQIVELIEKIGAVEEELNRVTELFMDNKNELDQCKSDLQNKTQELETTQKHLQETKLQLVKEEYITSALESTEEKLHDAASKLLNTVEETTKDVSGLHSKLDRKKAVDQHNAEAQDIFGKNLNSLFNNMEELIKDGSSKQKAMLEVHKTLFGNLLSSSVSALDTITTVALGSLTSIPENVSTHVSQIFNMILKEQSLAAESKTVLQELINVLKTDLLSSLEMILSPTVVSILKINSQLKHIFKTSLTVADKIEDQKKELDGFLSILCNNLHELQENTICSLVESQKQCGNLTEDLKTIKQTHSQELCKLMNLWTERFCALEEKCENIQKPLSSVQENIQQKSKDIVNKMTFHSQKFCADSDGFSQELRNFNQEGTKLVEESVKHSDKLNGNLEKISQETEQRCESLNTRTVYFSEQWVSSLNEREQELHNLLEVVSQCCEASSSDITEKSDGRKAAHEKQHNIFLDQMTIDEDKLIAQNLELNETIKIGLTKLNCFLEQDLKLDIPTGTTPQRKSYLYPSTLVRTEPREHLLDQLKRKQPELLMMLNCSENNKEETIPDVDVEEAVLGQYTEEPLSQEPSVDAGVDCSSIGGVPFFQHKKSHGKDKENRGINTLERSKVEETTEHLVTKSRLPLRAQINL
Nature of the assay: Inhibition of human Eg5 motor domain (residues 2-386) ATPase activity expressed in Escherichia coli assessed as release of inorganic phosphate after 30 mins.

For assay [2], the system named is HCT-116. Kind of assay: cells. Conditions: Homo sapiens, HCT-116, 72 h.
The next assay has as its system HepG2. Nature of the assay: cells. The following applies: Homo sapiens, HepG2, 72 h.
A further assay concerns the target T2, Aurora kinase A (Homo sapiens, UniProt O14965).
T2 sequence (O14965 whole entry): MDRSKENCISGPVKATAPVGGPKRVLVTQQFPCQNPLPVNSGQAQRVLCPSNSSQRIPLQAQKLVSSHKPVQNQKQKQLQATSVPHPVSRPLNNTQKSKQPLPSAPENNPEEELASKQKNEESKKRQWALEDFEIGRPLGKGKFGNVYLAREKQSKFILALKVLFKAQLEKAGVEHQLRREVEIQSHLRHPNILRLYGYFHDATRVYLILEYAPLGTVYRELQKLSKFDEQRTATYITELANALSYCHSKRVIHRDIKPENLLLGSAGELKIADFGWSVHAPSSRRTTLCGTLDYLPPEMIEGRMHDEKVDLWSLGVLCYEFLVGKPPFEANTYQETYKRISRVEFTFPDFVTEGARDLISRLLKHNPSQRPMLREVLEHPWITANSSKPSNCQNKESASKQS
Nature of the assay: Inhibition of human purified recombinant aurora-A kinase.

Another assay deals with A2780. Kind of assay: cells. Conditions: Homo sapiens, A2780, 72 h.
The subject of assay [3] is HCT-116. Kind of assay: Ratio of CPUYL064 IC50 to compound IC50 for human HCT116 cells.

Description for A2780: Cytotoxicity against human A2780 cells after 72 hrs by MTT assay
Description for HepG2: Cytotoxicity against human HepG2 cells after 72 hrs by MTT assay

For orientation: IC50 means the concentration that inhibits the measured activity by half. `CC1=C(C(=O)Nc2ccc(F)c(Cl)c2)C(c2ccccc2)c2c[nH]nc2N1` (configuration not stated): in assay [1], the IC50 turned out to be 0.17 µM.
On to `CC1=C(C(=O)Nc2ccc(F)cc2)C(c2ccccc2)c2c[nH]nc2N1` (configuration not stated), for which the IC50 in assay [1] was found to be 0.14 µM.
Same read-out and setting: under `COc1ccc(NC(=O)C2=C(C)Nc3n[nH]cc3C2c2cccs2)cc1` (configuration not stated) stands 0.0025 µM.
On the same count and under the same terms, with `CC1=C(C(=O)Nc2ccc([N+](=O)[O-])cc2)C(c2cccs2)c2c[nH]nc2N1` (configuration not stated) the figure was 0.82 µM; with `CC1=C(C(=O)Nc2ccc(C(F)(F)F)cc2)C(c2cccs2)c2c[nH]nc2N1` (configuration not stated), 0.32 µM; with `COc1ccc(NC(=O)C2=C(C)Nc3n[nH]cc3C2c2ccco2)cc1` (configuration not stated), 0.0011 µM.
The same measure, in the same setting: with `CC1=C(C(=O)Nc2ccc([N+](=O)[O-])cc2)C(c2ccco2)c2c[nH]nc2N1` (configuration not stated) the figure was 2.76 µM.
In the case of `CC1=C(C(=O)Nc2ccc(C(F)(F)F)cc2)C(c2ccco2)c2c[nH]nc2N1` (configuration not stated), the IC50 in assay [1] was 1.06 µM.
The same measure, in the same setting: with `CC1=C(C(=O)Nc2ccc(F)c(Cl)c2)C(c2ccco2)c2c[nH]nc2N1` (configuration not stated) the figure was 0.4 µM.
The same measure, in the same setting: with `CC1=C(C(=O)Nc2ccc(F)cc2)C(c2ccco2)c2c[nH]nc2N1` (configuration not stated) the figure was 10.4 µM.
As to `COc1ccc(NC(=O)C2=C(C)Nc3nc4ccccc4n3C2c2ccco2)cc1` (configuration not stated), the IC50 worked out at 8.71 µM with HCT-116 [2]; 4.97 µM in the assay on HepG2; 7.58 µM on Aurora kinase A; 2.46 µM in assay [1]; 9.34 µM in the assay on A2780.
The corresponding values for `CC1=C(C(=O)Nc2ccc([N+](=O)[O-])cc2)C(c2ccco2)n2c(nc3ccccc32)N1` (configuration not stated) are 11.5 µM, 13.5 µM, 3 µM, 20.9 µM and 3.05 µM.
For `CC1=C(C(=O)Nc2ccc(C(F)(F)F)cc2)C(c2ccco2)n2c(nc3ccccc32)N1` (configuration not stated), the results for the IC50 (in the assay on HCT-116 [2]; at Aurora kinase A; in assay [1]) were above 50 µM, 1.32 µM and 3.32 µM, respectively.
Take `CC1=C(C(=O)Nc2ccc(F)c(Cl)c2)C(c2ccco2)n2c(nc3ccccc32)N1` (configuration not stated): the IC50 in the assay on HCT-116 [2] was 10.9 µM; in the assay on HepG2, 26 µM; on Aurora kinase A, 5.73 µM; in assay [1] it was 0.96 µM; in the assay with A2780, above 50 µM.
With `CC1=C(C(=O)Nc2ccc(F)cc2)C(c2ccco2)n2c(nc3ccccc32)N1` (configuration not stated), in the assay with HCT-116 [3], the “Ratio IC50” value turned out to be 2.5. The IC50 in the assay with HCT-116 [2] is 4.96 µM; with HepG2, 7.38 µM; on Aurora kinase A it was 6.15 µM; in assay [1], 5.65 µM; in the assay on A2780 it was above 50 µM.
Regarding `CC1=C(C(=O)Nc2ccc(Cl)cc2)C(c2ccccc2)C2=C(CC(C)(C)CC2=O)N1` (configuration not stated), in assay [1], the half-maximal inhibitory concentration (IC50) came out at 0.18 µM.
On to `CC1=C(C(=O)Nc2ccc(F)c(Cl)c2)C(c2cccs2)c2c[nH]nc2N1` (configuration not stated), for which the half-maximal inhibitory concentration (IC50) in assay [1] worked out at 0.44 µM.
As to `COc1ccc(NC(=O)C2=C(C)Nc3n[nH]cc3C2c2ccccc2)cc1` (configuration not stated), the IC50 in assay [1] was 2.82 µM.
Same read-out and setting: with `CC1=C(C(=O)Nc2ccc([N+](=O)[O-])cc2)C(c2ccccc2)c2c[nH]nc2N1` (configuration not stated) the figure was 0.2 µM.
In the case of `CC1=C(C(=O)Nc2ccc(C(F)(F)F)cc2)C(c2ccccc2)c2c[nH]nc2N1` (configuration not stated), the IC50 in assay [1] is 0.4 µM.
`CN(C)c1ccc(-c2nc3cc(Cl)cnc3[nH]2)cc1`: the IC50 amounted to 4.71 µM in the assay with HCT-116 [2]; 5.85 µM in the assay with HepG2; 4.97 µM on Aurora kinase A; 40.2 µM in assay [1]; 4.26 µM in the assay with A2780.
Take `CCC(c1nc2cc(Cl)ccc2c(=O)n1Cc1ccccc1)N(CCCN(C)C)C(=O)c1ccc(Br)cc1` (configuration not stated) [CK0106023]: the IC50 with HCT-116 [2] is 0.94 µM; in the assay on HepG2, 2.1 µM; on Aurora kinase A it was above 50 µM; in assay [1], 0.029 µM; with A2780, 3 µM.
`CCOC(=O)C1=C(C)NC(=S)NC1c1cccc(O)c1` (configuration not stated) [MONASTROL]: the IC50 in the assay on HCT-116 [2] was above 50 µM; at Aurora kinase A, above 50 µM; in assay [1] it was 5.47 µM.
